Reference: patent publication US20260224554A1, “OBEFAZIMOD FOR TREATMENT OF ULCERATIVE COLITIS” (ABIVAX, priority 2023, published 2026)

Tested on: subjects with Moderate to Severe Active Ulcerative Colitis
Test: Follow-up Phase II open-label long-term study of ABX464 25 mg QD (ABX464-108), interim analysis
Type: in vivo, human
Experimental: • The primary objective of the study is to evaluate the long-term safety of ABX464 given at 25 mg once daily in subjects with Moderate to Severe Active Ulcerative Colitis • Number of Adverse Events (AEs) in ABX464 treated subjects
The secondary objectives are: • To evaluate the long-term effect of ABX464 on clinical remission; • Percentage of subjects reaching clinical remission at yearly visits. • To evaluate the long-term effect of ABX464 on endoscopic remission; • Percentage of subjects reaching endoscopic remission at yearly visits. • To evaluate the long-term effect of ABX464 on clinical response; • Percentage of subjects reaching clinical response at yearly visits. • To evaluate the long-term effect of ABX464 on endoscopic improvement; • Percentage of subjects reaching endoscopic improvement at yearly visits. • To evaluate the long-term effect of ABX464 on inflammatory markers (C-reactive protein (CRP), calprotectin); • The change from Baseline in CRP and fecal calprotectin levels. • To evaluate the safety profile of ABX464; • Number and rate of all AEs and causally-related AEs, all Serious Adverse Events (SAEs) and causally-related SAEs, all AEs of Special Interest (AESIs) and causally-related AESIs, classified by severity; • Incidence of AEs leading to investigational medicinal product discontinuation; • The number of clinically-significant laboratory abnormalities. • To evaluate the effect of ABX464 on miR-124 expression in total blood at every timepoint defined in the schedule of assessment. • Change relative to baseline in miRNA-124 expression in total blood at every defined timepoint.
For the purpose of the study, the following definitions will be applied: • Clinical remission based on the Mayo Scoring system, is defined as stool frequency subscore=0 or 1 and rectal bleeding subscore=0 and endoscopy subscore=0 or 1 (modified to exclude friability). • Clinical Response is defined as a reduction from baseline in modified Mayo Score of at least 2 points and greater than or equal to 30 percent from baseline with an accompanying decrease in rectal bleeding sub-score of greater than or equal to 1 point or absolute rectal bleeding sub-score of less than or equal to 1 point. • Endoscopic remission defined as a Mayo endoscopic sub score of 0. • Endoscopic improvement is defined as a Mayo endoscopic sub score of ≤1 (excluding friability).
This study is an open-label study aiming at evaluating the long-term safety and the efficacy profile of ABX464 given once a day (QD) at 25 mg in subjects who have been previously enrolled in the ABX464-102 or ABX464-104 studies (OLE and maintenance studies) and who are willing to continue their treatment.
All subjects will receive ABX464 given at 25 mg QD.
Subjects will be treated with ABX464 for a maximum period of 54 months. Subjects will be followed up quarterly. After the treatment period, subjects will be followed for 4 additional weeks for safety purposes.
A subject will be eligible to participate in this study if ALL the following criteria are met: • 1. Subjects who previously completed the ABX464-102 or ABX464-104 clinical studies; • 2. Subjects should be in endoscopic improvement with a rectal bleeding sub-score=0 point at the end of treatment period in the previous study (ABX464-102 or ABX464-104). Endoscopic improvement is defined as: a Mayo endoscopic sub score of ≤1; • 3. Subjects able and willing to comply with study visits and procedures; • 4. […]

SMILES: FC(F)(F)Oc1ccc(Nc2ccc3cccc(Cl)c3n2)cc1 [Obefazimod, 8-chloro-N-[4-(trifluoromethoxy)phenyl]quinolin-2-amine]
- Durability of efficacy (MMS evaluation) (25 mg QD in patients who achieved endoscopic improvement after 2-4 years of exposure to 50 mg): continues to have durable efficacy
- Proportion of patients with Fecal Calprotectin <250 microgm/gm (63 patients who completed 48-week treatment with 25 mg QD): 93%
- Disease control Rate (Stable+improved MMS) (63 patients who completed 48-week treatment with 25 mg QD, after 2-4 years of 50 mg in ABX464-102/-104): 84.1%
- New safety signals (UC patients treated for up to 5 years): no new safety signals
- Patients withdrawn due to AE (of 74 patients analyzed, 48-week treatment with 25 mg QD): 2 patients
